This note sets out measurements from ChEMBL document CHEMBL1126598, “Novel nonopioid non-antiinflammatory analgesics: 3-(aminoalkyl)- and 3-[(4-aryl-1-piperazinyl)alkyl]oxazolo[4,5-b]pyridin-2(3H)-ones” (J Med Chem, 1993).

Calls of active or inactive are those of the source. The rule behind the calls is not given here.

Data set [1] concerns Rattus norvegicus. Briefly: Anti-inflammatory effect expressed as % inhibition at 50 mg/kg in acute carrageenan paw edema test in rats. It is filed as functional.
A short description of data set [2]: Percent mortality in mice after oral administration (500 mg/kg) using acute toxicity assay. As to conditions: mouse, in vivo. It is filed as organism-based.
The species named for data set [3] is Mus musculus. As to the kind of experiment: Analgesic activity in mice using p-phenylquinone test. The data set is classed as functional.
Data set [4] relates to Mus musculus. Briefly: General behavior in mice after oral administration (500 mg/kg) using acute toxicity assay; Convulsions. The data set is classed as functional, organism-based.
Data set [5] concerns Mus musculus. Briefly: General behavior in mice after oral administration (1000 mg/kg) using acute toxicity assay; Convulsions. The data set is classed as functional, organism-based.
A short description of data set [6]: Percent mortality in mice after oral administration (1000 mg/kg) using acute toxicity assay. It is filed as organism-based. As to conditions: mouse, in vivo.
The test system of data set [7] is Mus musculus. Briefly: General behavior in mice after oral administration (1000 mg/kg) using acute toxicity assay; normal. The data set is classed as functional, organism-based.
Data set [8] deals with Mus musculus. As to the kind of experiment: General behavior in mice after oral administration (1000 mg/kg) using acute toxicity assay; decreased muscular tonus. The data set is classed as functional, organism-based.
Data set [9] concerns Rattus norvegicus. As to the kind of experiment: Anti-inflammatory effect expressed as % inhibition at 50 mg/kg in acute carrageenan paw edema test in rats; No inhibition. The data set is classed as functional, organism-based. The arrangement: dose 50 mg/kg.
For data set [10], the system named is Mus musculus. Briefly: General behavior in mice after oral administration (1000 mg/kg) using acute toxicity assay; convulsions. The data set is classed as functional, organism-based.
For data set [11], the system named is Rattus norvegicus. As to the kind of experiment: Anti-inflammatory effect expressed as % inhibition at 100 mg/kg in acute carrageenan paw edema test in rats. It is filed as functional.
In data set [12] the test system is Rattus norvegicus. Briefly: Anti-inflammatory effect expressed as % inhibition at 100 mg/kg in acute carrageenan paw edema test in rats; No inhibition. It is filed as functional, organism-based. The arrangement: dose 100 mg/kg.
The test system of data set [13] is Mus musculus. As to the kind of experiment: General behavior in mice after oral administration (1000 mg/kg) using acute toxicity assay; Normal. It is filed as functional, organism-based.
In data set [14] the test system is Mus musculus. Briefly: General behavior in mice after oral administration (1000 mg/kg) using acute toxicity assay; decreased locomotor activity, decreased muscular tonus. It is filed as functional, organism-based.
The nature of data set [15]: Percent mortality in mice after oral administration (750 mg/kg) using acute toxicity assay. The data set is classed as organism-based. As to conditions: mouse, in vivo.
The subject of data set [16] is Mus musculus. Briefly: General behavior in mice after oral administration (750 mg/kg) using acute toxicity assay; Convulsions. It is filed as functional, organism-based.
Data set [17] relates to Mus musculus. Briefly: General behavior in mice after oral administration (1000 mg/kg) using acute toxicity assay; Increased muscular tonus. The data set is classed as functional, organism-based.
The test system of data set [18] is Mus musculus. Briefly: General behavior in mice after oral administration (1000 mg/kg) using acute toxicity assay; sedation, decreased muscular tonus. The data set is classed as functional, organism-based.
Data set [19] has as its system Mus musculus. Briefly: General behavior in mice after oral administration (1000 mg/kg) using acute toxicity assay; decreased locomotor activity, increased muscular tonus. It is filed as functional, organism-based.
Data set [20] concerns Mus musculus. As to the kind of experiment: General behavior in mice after oral administration (1000 mg/kg) using acute toxicity assay; Increased locomotor activity, convulsive tendency. The data set is classed as functional, organism-based.
Data set [21] deals with Mus musculus. Briefly: General behavior in mice after oral administration (500 mg/kg) using acute toxicity assay; Increased muscular tonus. It is filed as functional, organism-based.

With `COc1ccccc1N1CCN(Cn2c(=O)oc3cccnc32)CC1`, the inhibition in vivo at 50 mg/kg with Rattus norvegicus [1] is 15%. In [2], this compound gave a mortality of 100%. In the data set filed under Mus musculus [3], this compound showed an ED50 greater than 25 mg/kg. Moreover, the Behavior result with Mus musculus [4] is on record as “Convulsions”.

`O=c1oc2cccnc2n1CCCCN1CCN(c2ccccc2)CC1`: in the data set with Mus musculus [5], the Behavior entry is “Convulsions”. The compound also registered a mortality in data set [6] of 100%. In the data set listed under Mus musculus [3], the ED50 was greater than 25 mg/kg.

Take `O=c1oc2cccnc2n1CCN1CCN(c2ccc(Oc3ccccc3)cc2)CC1`: the Behavior entry with Mus musculus [7] is listed as “normal”. In data set [6], the mortality turned out to be 0%. This compound registered an ED50 in the data set listed under Mus musculus [3] greater than 50 mg/kg.

With `CCN(CC)CCn1c(=O)oc2cccnc21`, the Behavior result in the data set on Mus musculus [5] is “Convulsions”. In data set [6], this compound had a mortality of 83%. In the data set filed under Mus musculus [3], this compound returned an ED50 greater than 25 mg/kg.

With `O=c1oc2cccnc2n1CCN1CCN(c2ccc(F)cc2)CC1`, the Behavior entry in the data set on Mus musculus [8] is “decreased muscular tonus”. The compound further came in with an inhibition in vivo at 50 mg/kg in the data set on Rattus norvegicus [1] of 16%. The compound further came in with a mortality in data set [6] of 0%. In addition, the 50% effect level in the data set filed under Mus musculus [3] (ED50) was put at a dose of 41.3 mg/kg.

`O=c1oc2cccnc2n1CCCN1CCN(c2cccc(C(F)(F)F)c2)CC1`: the inhibition result with Rattus norvegicus [9] is “inactive”. Besides, the Behavior result in the data set on Mus musculus [10] is “convulsions”. The compound further yielded a mortality in [6] of 50%. The compound further had an ED50 in the data set listed under Mus musculus [3] of 22 mg/kg.

For `O=c1oc2cccnc2n1CCN1CCCCC1`, in the data set with Mus musculus [10], the Behavior result is given as “convulsions”. Besides, the mortality in data set [6] amounted to 66%. Further, the ED50 in the data set listed under Mus musculus [3] was greater than 25 mg/kg. In the data set on Rattus norvegicus [11], this compound showed an inhibition in vivo at 100 mg/kg of 21%.

As to `CN1CCN(CCn2c(=O)oc3cccnc32)CC1`, in the data set with Mus musculus [5], the Behavior entry is recorded as “Convulsions”. For the same compound, the inhibition entry in the data set on Rattus norvegicus [12] was “inactive”. The mortality in data set [6] was determined as 50%. Moreover, the ED50 in the data set filed under Mus musculus [3] was greater than 25 mg/kg.

For the compound `COc1ccccc1N1CCN(CCn2c(=O)oc3cccnc32)CC1`, the inhibition entry with Rattus norvegicus [12] was “inactive”. Further, the mortality in [6] was 0%. Also, in the data set listed under Mus musculus [3], the ED50 was greater than 50 mg/kg. Also, the Behavior entry in the data set with Mus musculus [13] is “Normal”.

Regarding `O=c1oc2cccnc2n1CCN1CCN(c2ccccc2)CC1`, the inhibition in vivo at 50 mg/kg in the data set with Rattus norvegicus [1] turned out to be 13%. Moreover, in [6], the mortality was 0%. The same compound gave an ED50 in the data set filed under Mus musculus [3] of 19.4 mg/kg. Besides, the Behavior result in the data set with Mus musculus [13] is “Normal”.

As for `O=c1oc2cccnc2n1CCCN1CCN(c2ccccc2)CC1`, the Behavior entry with Mus musculus [14] is listed as “decreased locomotor activity, decreased muscular tonus”. The compound further gave an inhibition in vivo at 50 mg/kg in the data set with Rattus norvegicus [1] of 16%. In data set [6], this compound came in with a mortality of 10%. Further, in the data set listed under Mus musculus [3], the ED50 was 15.5 mg/kg.

For `O=c1oc2ccccc2n1CCN1CCN(c2cccc(C(F)(F)F)c2)CC1`, the inhibition result in the data set with Rattus norvegicus [9] was “inactive”. Also, in data set [6], the mortality worked out at 0%. The compound also displayed an ED50 in the data set filed under Mus musculus [3] of 30.2 mg/kg. Besides, in the data set on Mus musculus [13], the Behavior result is reported as “Normal”.

For `COc1ccc2c3c1O[C@H]1[C@@H](O)C=C[C@H]4[C@@H](C2)N(C)CC[C@@]341` [CODEINE], in the data set with Rattus norvegicus [1], the inhibition in vivo at 50 mg/kg was determined as 20%. Further, in data set [15], the mortality turned out to be 40%. Besides, the Behavior result in the data set with Mus musculus [16] is “Active”. Besides, the 50% effective dose (ED50) in the data set filed under Mus musculus [3] is 9.7 mg/kg.

In the case of `O=c1oc2cccnc2n1CN1CCN(c2cccc(Cl)c2)CC1`, in the data set with Rattus norvegicus [1], the inhibition in vivo at 50 mg/kg turned out to be 27%. This compound also gave a mortality in data set [2] of 100%. Moreover, in the data set listed under Mus musculus [3], it took a dose of 10.5 mg/kg to reach the 50% effect level (ED50). Moreover, the Behavior entry in the data set on Mus musculus [4] is given as “Convulsions”.

`O=C(OCC(O)CO)c1ccccc1Nc1ccnc2cc(Cl)ccc12` (stereo not drawn) [GLAFENINE] yielded an inhibition in vivo at 50 mg/kg in the data set with Rattus norvegicus [1] of 36%. Moreover, the mortality in data set [6] was 30%. In addition, it took a dose of 29.3 mg/kg to reach the 50% effect level in the data set listed under Mus musculus [3] (ED50). Besides, in the data set on Mus musculus [13], the Behavior result was “inactive”.

Take `O=c1oc2cccnc2n1CCN1CCOCC1`: in the data set on Mus musculus [17], the Behavior entry is “Increased muscular tonus”. In data set [6], this compound had a mortality of 50%. In the data set filed under Mus musculus [3], this compound came in with an ED50 greater than 25 mg/kg. Also, in the data set with Rattus norvegicus [11], 100 mg/kg produced 7% inhibition in vivo.

Regarding `O=c1oc2ccccc2n1CCN1CCN(c2ccccc2)CC1`, the inhibition in vivo at 50 mg/kg in the data set with Rattus norvegicus [1] amounted to 1%. This compound displayed a mortality in data set [6] of 0%. Moreover, the Behavior result in the data set on Mus musculus [18] is “sedation, decreased muscular tonus”. The compound further yielded an ED50 in the data set listed under Mus musculus [3] greater than 50 mg/kg.

The compound `O=c1oc2cccnc2n1CN1CCN(c2ccc(Cl)cc2)CC1` returned an inhibition in vivo at 50 mg/kg with Rattus norvegicus [1] of 23%. Also, the mortality in [2] is 90%. In the data set listed under Mus musculus [3], this compound registered an ED50 of 10.6 mg/kg. Further, the Behavior result in the data set with Mus musculus [4] was “Convulsions”.

`O=c1oc2cccnc2n1CCN1CCN(c2ccc(Cl)cc2)CC1` had a mortality in data set [6] of 0%. Further, in the data set listed under Mus musculus [3], the 50% effective dose (ED50) was greater than 50 mg/kg. Also, the Behavior entry in the data set on Mus musculus [19] is on record as “decreased locomotor activity, increased muscular tonus”.

With `O=c1oc2cccnc2n1CN1CCN(c2ccccc2Cl)CC1`, the inhibition entry in the data set on Rattus norvegicus [9] is “inactive”. The compound further came in with a mortality in [2] of 100%. The compound further yielded an ED50 in the data set filed under Mus musculus [3] of 22.2 mg/kg. The Behavior result with Mus musculus [4] is recorded as “Convulsions”.

For the compound `O=c1oc2cccnc2n1CN1CCN(c2ccccc2)CC1`, 50 mg/kg produced 11% inhibition in vivo with Rattus norvegicus [1]. This compound also registered a mortality in [2] of 70%. In the data set filed under Mus musculus [3], this compound displayed an ED50 of 5.9 mg/kg. Moreover, in the data set with Mus musculus [4], the Behavior result is recorded as “Convulsions”.

Consider `O=c1oc2cccnc2n1CCN1CCN(c2cccc(C(F)(F)F)c2)CC1`, for which the inhibition result with Rattus norvegicus [9] is “inactive”. In addition, the Behavior entry with Mus musculus [20] is given as “Increased locomotor activity, convulsive tendancy”. In [6], this compound had a mortality of 0%. The ED50 in the data set listed under Mus musculus [3] turned out to be 11.4 mg/kg.

Regarding `O=c1oc2cccnc2n1CN1CCN(c2cccc(C(F)(F)F)c2)CC1`, in the data set on Mus musculus [21], the Behavior result is “Increased muscular tonus”. Moreover, the inhibition in vivo at 50 mg/kg in the data set with Rattus norvegicus [1] came out at 25%. The compound also came in with a mortality in data set [2] of 50%. Besides, it took a dose of 3.6 mg/kg to reach the 50% effect level in the data set filed under Mus musculus [3] (ED50).

In turn, `Cc1ccc2oc(=O)n(CCN3CCN(c4ccccc4)CC3)c2n1` yielded a mortality in data set [6] of 0%. In the data set filed under Mus musculus [3], this compound came in with an ED50 greater than 50 mg/kg. Moreover, the Behavior result in the data set with Mus musculus [13] is “Normal”. Besides, in the data set with Rattus norvegicus [11], at 100 mg/kg the inhibition in vivo was 2%.

In data set [2], `O=c1oc2cccnc2n1CN1CCN(c2ccc(F)cc2)CC1` gave a mortality of 100%. Also, the ED50 in the data set listed under Mus musculus [3] stood at 3.5 mg/kg. In the data set on Mus musculus [4], the Behavior result is recorded as “Convulsions”.

With `O=c1oc2cc(Br)cnc2n1CCN1CCN(c2ccccc2)CC1`, the Behavior entry in the data set with Mus musculus [7] is listed as “normal”. In [6], the mortality stood at 0%. In addition, in the data set filed under Mus musculus [3], the ED50 stood at 34.1 mg/kg.
